# What was measured:
# [1] = system: human peripheral blood mononuclear cells (PBMC); assay: MTT assay on normal PBMC; type: cell-based; conditions: MTT assay, normal cells, 48 h, read-out: IC50 PBMC (normal cells)
# HL-60 cancer cells = assay: Quantification of apoptosis (Annexin V-PI), HL-60; type: cell-based, human; conditions: HL-60 cells
# Excerpt: (§1) Apoptotic population of cancer cells was quantified by Annexin V-propidium iodide (PI) staining technique (Abcam, Cambridge, MA, USA) using a flow cytometer as per published technique.
# caspase-9 [2] = assay: Caspase-9 colorimetric assay, HL-60; type: cell-based, human; conditions: HL-60 cells
# Description: (§2) Caspases-3, -8 and -9 assays were measured according to manufacturer’s instructions using a caspase colorimetric protease kit (Abcam, Cambridge, MA, USA). Cells were treated with compounds for 48 h. The cells were lysed by the addition of 50 μL of chilled cell lysis buffer and incubated on ice for 10 min. The resulting cell lysate was centrifuged for 1 min at 10,000 g, and the supernatant was collected. The cell lysate containing […] of protein was incubated with […] of 4 mmol/L pNA-conjugated substrates (DEVD-pNA, IETD-pNA and LEHD-pNA; substrates for caspase-3, -8 and -9, respectively) at 37 °C for 3 h. The amount of pNA released was measured at 405 nm using an ELISA microplate reader (Bio rad). The caspases activity was expressed as fold difference, [33].
# cytosolic cytochrome c = assay: Cytosolic cytochrome c estimation (ELISA), MCF-7; type: cell-based, human; conditions: MCF-7 cells; 5, 10 µM
# Description: Cells were collected by centrifugation at 600 g for 5 min at 4 °C. The cell pellets were washed once with ice-cold PBS and resuspended in cytosol extraction buffer (20 mM Hepes-KOH, pH 7.5, 10 mM KCl, 1.5 mM MgCl2, 1 mM sodium EDTA, 1 mM sodium EGTA, 1 mM dithiothreitol and 0.1 mM PMSF) containing 250 mM sucrose on ice for 10 min. The cells were homogenized with the grinder on ice. Further, the homogenates were centrifuged at 700 g for 10 min at 4 °C. The supernatants were centrifuged at 10,000 × g for 30 min at 4 °C. Supernatant was collected as cytosolic fraction.
# Cytosolic cytochrome c levels were determined using quantitative sandwich enzyme immunoassay using microplate reader. Sample or standard (100 μL) was added into each well and incubated for 2 h at room temperature. The wells were washed several times with wash buffer. The plate was inverted and cleaned with paper toweling. Cytochrome c conjugate (200 μL) was added into each well and incubated for 2 h at room temperature. Wells were washed several times with wash buffer. Substrate solution (200 μL) was added into each well and incubated for 30 min at room temperature. Finally, stop solution (50 μL) was added into wells. The optical density (absorbance) of each well was determined using microplate reader at a 450 nm wavelength.
# caspase-3 [3] = assay: Caspase-3 colorimetric assay, HL-60; type: cell-based, human; conditions: HL-60 cells
# Description: as §2
# Bcl-2 = assay: Quantification of Bcl-2 (ELISA), HL-60; type: cell-based, human; conditions: HL-60 cells; compared to untreated cells
# Description: The intracellular content of Bcl-2 was quantified using the human Bcl-2 ELISA kit (Abcam, Cambridge, MA, USA). For the sample preparation, the cells were lysed with 1X lysis buffer. After 1 h of incubation at room temperature, the sample was spun at 1,000 g for 15 min and the supernatant was used for Bcl-2 measurement. Briefly, 80 μL of sample diluent and 20 μL of sample were added into the wells coated with monoclonal antibody to human Bcl-2, and after that the wells were washed twice with the wash buffer. Next, 50 μL of biotin-conjugate were added into the wells. After 2 h of incubation at room temperature on a microplate shaker, 100 μL of streptavidin-horseradish peroxidase were added. The sample was incubated again for 1 h at room temperature on a microplate shaker. The solution was withdrawn and the wells were washed with 3X wash buffer. Immediately, 100 μL of TMB substrate solution were added. Finally, 100 μL of stop solution were added into each well to stop the enzyme reaction. The absorbance was read using an ELISA reader at 450 and 620 nm wavelengths. Bcl-2 protein concentration was determined from the standard protein graphic using the optical densities of the samples[32].
# caspase-3 [4] = assay: Caspase-3 colorimetric assay, MCF-7; type: cell-based, human; conditions: MCF-7 cells
# Description: as §2
# caspase-8 = assay: Caspase-8 colorimetric assay, MCF-7; type: cell-based, human; conditions: MCF-7 cells; data not showed
# Description: as §2
# [5] = system: DU145 prostate cancer cells; assay: MTT antiproliferative assay, DU145; type: cell-based; conditions: Homo sapiens, DU-145; MTT assay; cancer cell line; mean of three independent experiments ± S.E.M.; read-out: IC50 DU145 Prostate
# [6] = system: MIA PaCa-2 pancreatic cancer cells; assay: MTT antiproliferative assay, MIA PaCa-2; type: cell-based; conditions: Homo sapiens, MIA PaCa-2; MTT assay; cancer cell line; mean of three independent experiments ± S.E.M.; read-out: IC50 MIA PaCa-2 Pancreatic
# caspase-9 [7] = assay: Caspase-9 colorimetric assay, MCF-7; type: cell-based, human; conditions: MCF-7 cells
# Description: as §2
# MCF-7 cancer cells = assay: Cell cycle analysis (PI, flow cytometry), MCF-7; type: cell-based, human; conditions: MCF-7 cells; 5 and 10 µM; 24 h
# Description: (§3) Cancer cells (1 × 10^6/ml) were treated with different concentrations of compound (5 and10 µM) for 24 h, fixed in cold 70% alcohol in PBS, washed, digested with DNase free RNase (400 µg/mL) at 37 °C for 45 min and stained with propidium iodide (10 µg/ml). Cells were analyzed for PI-DNA fluorescence by flow cytometerically using FACS CALIBUR (Becton Dickinson, Franklin Lakes, New Jersey, USA)[28]–[30]. The fluorescence intensity of subG0/GI cell fraction represents the dead cell population.
# [8] = system: MCF-7 breast cancer cells; assay: Quantification of apoptosis (Annexin V-PI), MCF-7; type: cell-based, human; conditions: MCF-7 cells, 5 and 10 µM, 24 h
# Excerpt: as §1
# HL-60 cells = assay: Cell cycle analysis (PI, flow cytometry), HL-60; type: cell-based, human; conditions: 24 h
# Description: as §3
smiles,measurement,setting,value
"COc1cc(CO)ccc1OC1OC(COC(=O)c2ccc(F)cc2)C(O)C(O)C1O (centres unmarked) [Compound 9f, (6-(4-(hydroxymethyl)-2-methoxyphenoxy)-tetrahydro-3,4,5-trihydroxy-2H-pyran-2-yl)methyl 4-fluorobenzoate]",IC50,[1],> 100 µM
same,apoptotic cell population,HL-60 cancer cells,increase in the early apoptotic to late apoptotic cells in a dose-dependent fashion
same,effect on caspase-9 activity,caspase-9 [2],enhanced caspase-3 and -9 activities
same,effect on cytosolic cytochrome c levels,cytosolic cytochrome c,dose dependently increased
same,effect on caspase-3 activity,caspase-3 [3],enhanced caspase-3 and -9 activities
same,effect on Bcl-2 levels,Bcl-2,dose dependent inhibition of Bcl-2
same,effect on caspase-3 activity,caspase-3 [4],enhanced caspase-3 and -9 activities
same,effect on caspase-8 activity,caspase-8,did not show considerable effect
same,IC50,[5],10.8 ± 0.42 µM
same,IC50,[6],12.9 ± 0.52 µM
same,effect on caspase-9 activity,caspase-9 [7],enhanced caspase-3 and -9 activities
same,effect on cell cycle distribution,MCF-7 cancer cells,cell cycle arrest at G0/G1 phase
same,apoptotic cell population,[8],dose-dependent increase in the early apoptotic to late apoptotic population
same,effect on cell cycle distribution,HL-60 cells,cell cycle arrest at G0/G1 phase

# From publication PMC5559490, “Synthesis of Saccharumoside-B analogue with potential of antiproliferative and pro-apoptotic activities” (Scientific Reports, 2017)
